The IC50 is the concentration that inhibits the measured activity by half. As a reminder, the EC50 is the midpoint of the concentration-response curve. What is called AC50 is the midpoint of the concentration-response curve, whichever way the signal moves.

Each structure is given as a SMILES string. Active and inactive are the calls of the source.

The source of these data is ChEMBL document CHEMBL1201862, “PubChem BioAssay data set” (2004).

In assay [1] the target is Dual specificity protein phosphatase 3 (Homo sapiens, UniProt P51452). Put plainly: SAR VHR1 Fluorescent Assay for In Vitro dose response studies Set 3. [Related pubchem assays (depositor defined):AID1654, AID1661, AID1878]. It is filed as functional.
Assay [2] deals with HEK293. Put plainly: cells. The conditions noted are these: Homo sapiens.
In assay [3] the test system is HEK293. Put plainly: cells. The settings on record: Homo sapiens. The source holds these as a separate data set.
In assay [4] the test system is Jurkat. The assay can be described thus: SAR Analysis of small molecule inhibitors of […] specific antigen receptor-induced NF-kB activation in a Jurkat cell line using a luminescence assay - Set 3. [Related pubchem assays (depositor defined):AID435022, AID435025, AID465]. It is filed as functional, cell-based. The settings on record: Homo sapiens.
For assay [5], the system named is HEK293. The assay can be described thus: SAR Analysis of small molecule inhibitors of B-cell specific antigen receptor-induced NF-kB activation in a HEK-293T cell line using a luminescence assay - Set 2. [Related pubchem assays (depositor defined):AID435022, AID435025, AID489021]. It is filed as functional, cell-based. The conditions noted are these: Homo sapiens.

In assay [6] the test system is HEK293. The assay can be described thus: cytotoxicity in HEK293T NF-kB-Luc cells, SAR follow-up, cytotoxicity control for NF-kB activator project, cell-based, resazurin fluorescence (AID 493251). The conditions noted are these: Homo sapiens. The assay is classed as functional.
Assay [7] in a line: Luminescence Cell-Based Dose Retest to Confirm Inhibitors of Cancer Stem Cells. [Related pubchem assays (depositor defined):AID2717, AID2721]. The settings on record: Homo sapiens. It is filed as functional.
Assay [8] can be described thus: cytotoxicity in HMLE control line with eGFP shRNA, dose response, counter-screen for HMLE_sh_ECad selective toxicity project, cell-based, HMLE_sh_eGFP, luminescence (AID 463074).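 Further: HMLE human mammary epithelial cells expressing control shRNA against eGFP.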 It is filed as functional, Homo sapiens. A general note: A counterscreen serves to expose hits that act by an unwanted route or on another target.
The target of assay [9] is T1, Beta Lactamase (Pseudomonas aeruginosa, UniProt Q932Y6).
Assay [10] deals with Streptococcus sp. 'group A'. Put plainly: growth inhibition of control SK(-) GAS strain, dose response, counter-screen for streptokinase expression inhibitor project, luminescence, kanamycin, BacTiterGlo, confirmation (AID 1900). It is filed as functional, organism-based.
Assay [11] deals with T2, Streptokinase A (Streptococcus pyogenes serotype M1, UniProt P10520).
T2 sequence (P10520 whole entry): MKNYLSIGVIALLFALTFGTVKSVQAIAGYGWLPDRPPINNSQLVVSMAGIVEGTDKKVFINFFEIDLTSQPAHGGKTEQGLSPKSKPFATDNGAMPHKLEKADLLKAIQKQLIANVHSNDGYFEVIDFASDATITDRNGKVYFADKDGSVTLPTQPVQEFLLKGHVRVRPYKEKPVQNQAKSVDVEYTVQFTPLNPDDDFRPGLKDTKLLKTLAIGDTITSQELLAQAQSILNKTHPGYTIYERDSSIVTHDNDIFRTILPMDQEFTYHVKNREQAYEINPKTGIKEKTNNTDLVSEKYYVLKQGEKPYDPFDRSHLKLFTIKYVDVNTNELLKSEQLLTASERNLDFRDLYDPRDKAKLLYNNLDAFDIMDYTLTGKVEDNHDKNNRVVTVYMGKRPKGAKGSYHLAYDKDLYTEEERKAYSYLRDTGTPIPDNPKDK
Put plainly: S. pyogenes streptokinase expression inhibitors, potency, dose response, plasminogen activation absorbance, OD405 (AID 1914).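 Further: secreted streptokinase activity via plasminogen activation per viability signal from cell pellet.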 The assay is classed as functional, Streptococcus pyogenes M1 GAS.

The target in assay [12] is Beta-lactamase (Pseudomonas aeruginosa, UniProt Q79MP6).
The target in assay [13] is Beta-lactamase (Salmonella choleraesuis (strain SC-B67), UniProt Q5J463).
The test system of assay [14] is Streptococcus. The assay can be described thus: Group A Streptococcus viability loss, dose response, counter-screen for streptokinase expression inhibitor project, luminescence, BacTiterGlo (AID 1915).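 Further: potency for reduction of bacterial viability or growth.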 It is filed as functional, organism-based.
Assay [15] concerns HeLa. The assay can be described thus: HeLa cell cytotoxicity, dose response, cytotoxicity control, 24 h, cherry-picked samples (AID 504726).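 Further: potency for cytotoxicity as loss of luminescence signal.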 The assay is classed as functional, cell-based. The conditions noted are these: Homo sapiens.
Assay [16] concerns the target ORF 73 (Human herpesvirus 8, UniProt O40947). Put plainly: inhibitors of C-LANA binding to LBS DNA, dose response, biochemical, fluorescence polarization, cherry-picked samples (AID 504725).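 Further: fluorescence polarization of a labeled DNA duplex reporting LANA DNA binding; potency is for inhibitors that block LANA binding to the DNA.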 Details: species or system Human gammaherpesvirus 8.
Assay [17] deals with T3, Heat shock factor protein 1 (Mus musculus, UniProt P38532).
T3 sequence (P38532 whole entry): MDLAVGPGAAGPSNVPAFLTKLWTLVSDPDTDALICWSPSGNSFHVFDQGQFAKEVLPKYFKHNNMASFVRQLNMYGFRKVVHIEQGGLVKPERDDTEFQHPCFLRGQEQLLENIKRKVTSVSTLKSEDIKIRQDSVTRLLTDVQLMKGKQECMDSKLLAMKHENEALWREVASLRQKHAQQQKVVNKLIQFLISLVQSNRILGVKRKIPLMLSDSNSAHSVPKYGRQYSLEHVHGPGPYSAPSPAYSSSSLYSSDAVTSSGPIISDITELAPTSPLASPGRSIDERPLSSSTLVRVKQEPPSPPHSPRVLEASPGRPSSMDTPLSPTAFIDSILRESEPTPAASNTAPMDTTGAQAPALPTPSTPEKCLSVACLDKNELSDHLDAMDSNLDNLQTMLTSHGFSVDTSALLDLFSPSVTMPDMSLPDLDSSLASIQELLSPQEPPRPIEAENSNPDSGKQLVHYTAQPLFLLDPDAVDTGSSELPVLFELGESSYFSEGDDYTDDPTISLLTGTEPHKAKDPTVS
Put plainly: HSF1 potentiators in luciferase reporter cells, confirmation, cell-based, NIH3T3, luminescence, dose retest (AID 435004).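 Further: stress induced by proteasome inhibitor MG132 added 30 min after compound; luciferase reporter driven by HSF1 response element in NIH3T3 cells; actives raise luminescence as potentiators of the MG132 stress response.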 The assay is classed as functional.

The test system of assay [18] is CHO. Put plainly: cytotoxicity in TLR9-MyD88 CHO cells, dose response, cytotoxicity control for TLR9-MyD88 binding inhibitor project, cell-based, luminescence (AID 588339).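 Further: CHO cells stably coexpressing TLR9 and MyD88 fusions from primary screen; compound exposure lasted 48 hours before viability readout.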 The assay is classed as functional, hamster. The conditions noted are these: Cricetulus griseus.
The target of assay [19] is UDP-galactopyranose mutase (Mycobacterium tuberculosis, UniProt P9WIQ1). Put plainly: Inhibitors of Mycobacterium tuberculosis UDP-galactopyranose mutase (UGM) enzyme Measured in Biochemical System Using Plate Reader - 2105-02_Inhibitor_Dose_CherryPick_Activity. [Related pubchem assays (depositor defined):AID504439].
In assay [20] the target is T4, Insulin-degrading enzyme (Homo sapiens, UniProt P14735).
T4 sequence (P14735 whole entry): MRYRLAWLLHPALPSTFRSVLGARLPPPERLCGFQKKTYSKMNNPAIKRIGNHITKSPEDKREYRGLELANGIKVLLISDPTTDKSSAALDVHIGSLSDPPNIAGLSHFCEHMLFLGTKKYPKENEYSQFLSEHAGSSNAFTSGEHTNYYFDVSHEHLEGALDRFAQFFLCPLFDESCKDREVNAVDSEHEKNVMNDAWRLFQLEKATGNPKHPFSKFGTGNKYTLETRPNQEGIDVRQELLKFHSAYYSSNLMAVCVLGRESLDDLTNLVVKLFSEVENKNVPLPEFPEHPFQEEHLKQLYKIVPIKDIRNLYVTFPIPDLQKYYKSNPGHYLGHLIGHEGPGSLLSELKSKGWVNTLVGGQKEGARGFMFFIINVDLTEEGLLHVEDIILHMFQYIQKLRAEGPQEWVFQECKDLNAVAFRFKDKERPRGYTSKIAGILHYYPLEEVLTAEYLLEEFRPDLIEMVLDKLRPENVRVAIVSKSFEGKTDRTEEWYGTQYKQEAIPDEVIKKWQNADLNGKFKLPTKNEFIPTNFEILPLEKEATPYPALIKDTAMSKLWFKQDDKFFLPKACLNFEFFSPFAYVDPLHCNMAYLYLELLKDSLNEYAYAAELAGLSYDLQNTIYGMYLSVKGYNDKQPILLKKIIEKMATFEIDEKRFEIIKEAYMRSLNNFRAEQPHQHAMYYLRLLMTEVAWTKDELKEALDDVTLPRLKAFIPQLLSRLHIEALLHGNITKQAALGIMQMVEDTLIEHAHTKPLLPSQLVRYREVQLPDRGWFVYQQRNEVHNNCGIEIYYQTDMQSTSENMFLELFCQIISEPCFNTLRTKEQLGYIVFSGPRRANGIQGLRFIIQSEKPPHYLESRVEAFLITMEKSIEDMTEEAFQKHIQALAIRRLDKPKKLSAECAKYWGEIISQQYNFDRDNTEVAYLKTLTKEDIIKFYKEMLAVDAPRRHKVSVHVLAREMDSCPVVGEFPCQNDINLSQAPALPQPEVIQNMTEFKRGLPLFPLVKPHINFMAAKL
The assay can be described thus: activators of recombinant IDE enzyme, dose response, counter-screen for IDE activator project, biochemical, fluorescence polarization (AID 588681).

The target of assay [21] is Keap1/Nrf2 (Homo sapiens, UniProt Q14145). The assay can be described thus: Keap1-Nrf2 protein-protein interaction inhibitors, dose response, biochemical, fluorescence polarization, cherry-picked samples (AID 588683). On the technique in general: Polarisation of emitted light reports the rotation of a fluorescent probe.
For assay [22], the target named is T1, Beta Lactamase. Put plainly: beta-lactamase reporter inhibitor potency, dose response, artefact control for TLR9-MyD88 binding inhibitor project, BLA reporter cells, FRET fluorescence (AID 588341).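 Further: cell based assay in CHO-K1 cells stably expressing beta-lactamase.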 It is filed as cell-based.
In assay [23] the target is T4, Insulin-degrading enzyme. Put plainly: activators of endogenous IDE in HEK cells, dose response, cell-based, fluorescence polarization (AID 588439). It is filed as functional.
The test system of assay [24] is HEK293. The assay can be described thus: HEK cell cytotoxicity by LDH release, dose response, cytotoxicity control for IDE activator project, fluorescence, HEK cells (AID 588440).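 Further: cytotoxicity by LDH release measuring loss of membrane integrity.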 The assay is classed as functional, cell-based. The conditions noted are these: Homo sapiens.
The subject of assay [25] is HEK293. The assay can be described thus: optical interference in Abeta FP readout, dose response, artefact control for IDE activator project, biochemical, fluorescence polarization (AID 588442). It is filed as functional, cell-based. The conditions noted are these: Homo sapiens.

T1 sequence (Q932Y6 whole entry): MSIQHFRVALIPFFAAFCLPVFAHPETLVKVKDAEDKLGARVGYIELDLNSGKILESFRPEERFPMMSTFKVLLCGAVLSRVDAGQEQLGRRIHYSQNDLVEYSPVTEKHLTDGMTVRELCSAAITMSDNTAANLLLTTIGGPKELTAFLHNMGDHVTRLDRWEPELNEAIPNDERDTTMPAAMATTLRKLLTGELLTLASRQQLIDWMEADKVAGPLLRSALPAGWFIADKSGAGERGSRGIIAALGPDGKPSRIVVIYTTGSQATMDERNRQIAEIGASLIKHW
Sequence of Beta-lactamase (Pseudomonas aeruginosa, UniProt Q79MP6) (Q79MP6 whole entry): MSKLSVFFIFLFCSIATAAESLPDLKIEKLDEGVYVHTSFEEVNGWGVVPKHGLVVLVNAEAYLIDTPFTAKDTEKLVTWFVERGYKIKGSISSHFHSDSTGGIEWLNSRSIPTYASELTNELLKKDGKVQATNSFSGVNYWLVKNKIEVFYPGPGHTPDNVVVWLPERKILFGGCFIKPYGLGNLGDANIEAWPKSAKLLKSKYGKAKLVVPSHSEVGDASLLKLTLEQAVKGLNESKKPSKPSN
Sequence of Beta-lactamase (Salmonella choleraesuis (strain SC-B67), UniProt Q5J463) (Q5J463 whole entry): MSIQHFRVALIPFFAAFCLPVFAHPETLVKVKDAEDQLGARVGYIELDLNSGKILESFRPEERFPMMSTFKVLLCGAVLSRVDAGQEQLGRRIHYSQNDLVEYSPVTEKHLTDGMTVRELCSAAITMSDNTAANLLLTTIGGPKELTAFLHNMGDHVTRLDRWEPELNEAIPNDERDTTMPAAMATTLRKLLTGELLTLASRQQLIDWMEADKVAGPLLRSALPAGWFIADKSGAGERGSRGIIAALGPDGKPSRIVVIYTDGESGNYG
Sequence of Dual specificity protein phosphatase 3 (P51452 whole entry): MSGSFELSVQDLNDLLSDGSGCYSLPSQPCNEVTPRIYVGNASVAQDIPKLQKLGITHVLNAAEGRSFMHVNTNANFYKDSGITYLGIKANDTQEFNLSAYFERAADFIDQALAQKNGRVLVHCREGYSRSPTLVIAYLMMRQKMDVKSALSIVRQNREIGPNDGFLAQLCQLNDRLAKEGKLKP
Sequence of ORF 73 (O40947 whole entry): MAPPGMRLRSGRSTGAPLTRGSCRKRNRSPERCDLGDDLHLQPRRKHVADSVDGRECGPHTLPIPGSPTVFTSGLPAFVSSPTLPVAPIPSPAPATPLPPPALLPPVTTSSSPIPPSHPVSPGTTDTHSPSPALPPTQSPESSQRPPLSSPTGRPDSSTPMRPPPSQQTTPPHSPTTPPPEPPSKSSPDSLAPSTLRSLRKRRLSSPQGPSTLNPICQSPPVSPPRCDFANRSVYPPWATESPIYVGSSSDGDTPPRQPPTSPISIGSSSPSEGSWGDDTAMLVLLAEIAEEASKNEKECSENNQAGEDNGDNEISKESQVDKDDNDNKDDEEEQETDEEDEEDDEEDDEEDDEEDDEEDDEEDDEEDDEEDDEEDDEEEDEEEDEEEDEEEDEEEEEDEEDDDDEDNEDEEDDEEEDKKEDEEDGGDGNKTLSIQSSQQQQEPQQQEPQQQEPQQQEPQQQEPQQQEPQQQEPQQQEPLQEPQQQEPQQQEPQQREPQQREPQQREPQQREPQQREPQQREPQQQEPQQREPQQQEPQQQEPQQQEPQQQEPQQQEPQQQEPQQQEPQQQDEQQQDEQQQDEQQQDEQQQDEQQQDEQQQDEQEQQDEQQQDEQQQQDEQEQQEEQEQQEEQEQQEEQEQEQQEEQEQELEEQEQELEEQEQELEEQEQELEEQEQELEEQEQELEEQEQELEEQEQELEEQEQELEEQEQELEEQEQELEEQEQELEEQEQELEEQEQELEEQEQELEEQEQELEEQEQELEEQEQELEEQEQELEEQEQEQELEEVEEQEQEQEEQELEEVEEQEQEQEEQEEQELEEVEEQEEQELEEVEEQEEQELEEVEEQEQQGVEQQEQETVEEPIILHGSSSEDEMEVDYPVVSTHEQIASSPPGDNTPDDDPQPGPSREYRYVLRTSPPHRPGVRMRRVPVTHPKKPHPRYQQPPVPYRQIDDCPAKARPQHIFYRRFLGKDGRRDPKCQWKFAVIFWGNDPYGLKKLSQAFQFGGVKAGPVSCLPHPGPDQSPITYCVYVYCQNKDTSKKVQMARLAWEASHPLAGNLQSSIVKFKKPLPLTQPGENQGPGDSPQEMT
Sequence of UDP-galactopyranose mutase (P9WIQ1 whole entry): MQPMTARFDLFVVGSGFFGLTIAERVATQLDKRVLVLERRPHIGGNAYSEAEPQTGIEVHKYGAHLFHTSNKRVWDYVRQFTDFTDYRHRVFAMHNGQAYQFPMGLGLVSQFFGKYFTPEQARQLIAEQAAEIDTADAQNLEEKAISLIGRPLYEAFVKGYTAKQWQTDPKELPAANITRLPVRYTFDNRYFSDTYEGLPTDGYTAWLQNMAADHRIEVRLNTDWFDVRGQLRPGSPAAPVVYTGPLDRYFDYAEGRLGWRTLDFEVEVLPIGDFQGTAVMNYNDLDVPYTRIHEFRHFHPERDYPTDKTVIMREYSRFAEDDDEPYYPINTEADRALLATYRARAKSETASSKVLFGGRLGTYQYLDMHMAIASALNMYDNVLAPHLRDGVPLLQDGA
Sequence of Keap1/Nrf2 (Q16236 whole entry): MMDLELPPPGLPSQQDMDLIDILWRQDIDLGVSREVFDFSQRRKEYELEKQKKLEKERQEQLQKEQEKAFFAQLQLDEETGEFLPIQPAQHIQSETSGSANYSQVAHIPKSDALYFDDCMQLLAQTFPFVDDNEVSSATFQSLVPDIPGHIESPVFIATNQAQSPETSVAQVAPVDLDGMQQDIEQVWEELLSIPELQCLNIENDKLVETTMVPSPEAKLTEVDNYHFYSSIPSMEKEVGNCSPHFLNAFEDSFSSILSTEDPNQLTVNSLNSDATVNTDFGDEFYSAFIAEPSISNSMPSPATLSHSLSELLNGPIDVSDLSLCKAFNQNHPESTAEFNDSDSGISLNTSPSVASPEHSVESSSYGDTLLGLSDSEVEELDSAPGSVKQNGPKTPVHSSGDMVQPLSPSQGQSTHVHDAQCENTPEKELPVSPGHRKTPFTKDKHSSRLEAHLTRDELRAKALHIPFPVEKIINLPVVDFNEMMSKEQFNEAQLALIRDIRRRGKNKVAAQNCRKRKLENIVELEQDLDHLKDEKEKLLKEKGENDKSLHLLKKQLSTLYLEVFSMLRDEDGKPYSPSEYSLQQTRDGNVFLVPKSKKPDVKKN
Sequence of Keap1/Nrf2 (Q14145 whole entry): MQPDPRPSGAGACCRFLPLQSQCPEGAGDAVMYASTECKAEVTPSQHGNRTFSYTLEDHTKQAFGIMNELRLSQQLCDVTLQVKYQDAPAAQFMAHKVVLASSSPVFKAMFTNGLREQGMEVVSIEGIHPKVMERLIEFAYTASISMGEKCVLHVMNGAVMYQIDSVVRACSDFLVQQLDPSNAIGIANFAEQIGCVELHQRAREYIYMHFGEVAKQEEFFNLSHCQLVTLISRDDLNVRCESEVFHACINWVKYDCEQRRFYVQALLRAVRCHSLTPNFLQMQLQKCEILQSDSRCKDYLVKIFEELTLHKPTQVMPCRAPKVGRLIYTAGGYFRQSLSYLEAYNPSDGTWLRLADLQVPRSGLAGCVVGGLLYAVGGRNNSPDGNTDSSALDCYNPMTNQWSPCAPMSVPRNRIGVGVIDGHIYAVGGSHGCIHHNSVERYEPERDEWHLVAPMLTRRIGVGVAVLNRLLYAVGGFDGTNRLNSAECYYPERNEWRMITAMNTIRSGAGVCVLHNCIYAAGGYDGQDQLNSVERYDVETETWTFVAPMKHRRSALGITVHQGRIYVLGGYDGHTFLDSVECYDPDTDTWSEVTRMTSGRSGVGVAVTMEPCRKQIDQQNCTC

As to `Cc1ccc(C(=O)NC(=S)Nc2ccc(Cl)c(-c3nc4ccccc4s3)c2)cc1`, in assay [1], the IC50 is > 66 µM (inactive).
Turning to `COc1ccc(N2C(=O)NC(NC(=O)C(C)(C)C)(C(F)(F)F)C2=O)cc1` (stereo not given), the EC50 in assay [2] and in assay [3] was > 59.7 µM (inactive) each time.
With `CC(C)(C)c1ccc(-c2noc(CCC(=O)NC3CCCC3)n2)cc1`, the IC50 was 0.48 µM (active) in assay [4], 0.78 µM (active) in assay [5] and > 80 µM (inactive) in assay [6].
Consider `O=C(CSc1ccc(F)cc1)N1CCC(c2nc3ccccc3s2)CC1`, for which the AC50 in assay [7] was 40.5 µM (active); in assay [8] it was 26.9 µM (active).
Consider `CCCC/N=C1\C(=O)N(C)c2cccc3c(O)c4ccccc4c1c23`, for which the IC50 is 11.9 µM (inactive) in assay [9]; 14.3 µM (inactive) in [12]; 4.28 µM (active) in assay [13]; 20.1 µM (inactive) in assay [18]; 9.06 µM (active) in assay [22]; > 89.2 µM (inactive) in assay [24]. In addition, the EC50 is 6.81 µM (active) in [10]; 21.4 µM (active) in assay [11]; 35.4 µM (active) in [14]; 56.5 µM (active) in assay [17]; > 54.7 µM (inactive) in assay [20]; > 54.7 µM (inactive) in [23]. Besides, the EC50 in [25] was > 54.7 µM (inactive). The AC50 in [15] is > 350 µM (inactive); in assay [16], 4.99 µM (active); in assay [19] it was 1.04 µM (active); in assay [21] it was 1.13 µM (active).
